Test results published in patent US20220267310A1, “QUINAZOLINE AND CINNOLINE DERIVATIVES AS DNA-PK INHIBITOR” (MEDSHINE DISCOVERY INC., priority 2019, published 2022).
Where “and” joins values, the source holds several entries; their conditions need not be identical. Equal entries are not always repeated.

Key:
[1] = Pharmacokinetic evaluation in mice, IV and PO; format: in vivo, Balb/c female mice
Description: The tested compound was mixed with 10% DMSO/50% PEG400/40% water, vortexized and ultrasonic to prepare 0.2 mg/mL or 0.4 mg/ml, approximately clarified solution, which was filtered by a microporous membrane and then standby. Balb/c female mice of 18-20 g were selected and given the candidate compound solution intravenously at a dose of 1 or 2 mg/kg. The tested compound was mixed with 10% DMSO/50% PEG400/40% water, vortexized and ultrasonic to prepare 0.2 mg/mL or 1 mg/mL approximately clarified solution, which was filtered by a microporous membrane and then standby. Balb/c female mice of 18 to 20 g were selected and given orally the candidate compound solution at a dose of 2 or 10 mg/kg. Whole blood was collected for a certain period of time, and plasma was prepared. Drug concentration was analyzed by LC-MS/MS method, and pharmacokinetic parameters were calculated by Phoenix WinNonlin software (US Pharsight company).
C0: instantaneous concentration required after intravenous injection; Cmax: the highest blood concentration after administration; Tmax: time required to reach peak concentration after administration; T1/2: the time required for blood drug concentration to decrease by half; Vdss: apparent volume of distribution, which refers to the ratio constant of drug dosage to blood concentration when a drug reaches dynamic equilibrium in vivo. Cl: clearance rate, referring to drug apparent distribution volume number removed from the body per unit time; Tlast: time of last detection point: AUC0-last: an area under a drug duration curve, referring to an area surrounded by the blood drug concentration curve on the time axis; Bioavailability: a measure of the rate and extent of drug absorption into the blood circulation, which was an important index to evaluate drug absorption degree.

PI3K (p110σ/p85α) = biological target: T1, PI3K (p110σ/p85α) (Homo sapiens, UniProt O00329); assay: PI3K (p110σ/p85α) kinase inhibitory activity (HTRF); format: biochemical
T1 construct: Eurofins Pharma Discovery Service (contract assay)
T1 sequence (O00329 whole entry): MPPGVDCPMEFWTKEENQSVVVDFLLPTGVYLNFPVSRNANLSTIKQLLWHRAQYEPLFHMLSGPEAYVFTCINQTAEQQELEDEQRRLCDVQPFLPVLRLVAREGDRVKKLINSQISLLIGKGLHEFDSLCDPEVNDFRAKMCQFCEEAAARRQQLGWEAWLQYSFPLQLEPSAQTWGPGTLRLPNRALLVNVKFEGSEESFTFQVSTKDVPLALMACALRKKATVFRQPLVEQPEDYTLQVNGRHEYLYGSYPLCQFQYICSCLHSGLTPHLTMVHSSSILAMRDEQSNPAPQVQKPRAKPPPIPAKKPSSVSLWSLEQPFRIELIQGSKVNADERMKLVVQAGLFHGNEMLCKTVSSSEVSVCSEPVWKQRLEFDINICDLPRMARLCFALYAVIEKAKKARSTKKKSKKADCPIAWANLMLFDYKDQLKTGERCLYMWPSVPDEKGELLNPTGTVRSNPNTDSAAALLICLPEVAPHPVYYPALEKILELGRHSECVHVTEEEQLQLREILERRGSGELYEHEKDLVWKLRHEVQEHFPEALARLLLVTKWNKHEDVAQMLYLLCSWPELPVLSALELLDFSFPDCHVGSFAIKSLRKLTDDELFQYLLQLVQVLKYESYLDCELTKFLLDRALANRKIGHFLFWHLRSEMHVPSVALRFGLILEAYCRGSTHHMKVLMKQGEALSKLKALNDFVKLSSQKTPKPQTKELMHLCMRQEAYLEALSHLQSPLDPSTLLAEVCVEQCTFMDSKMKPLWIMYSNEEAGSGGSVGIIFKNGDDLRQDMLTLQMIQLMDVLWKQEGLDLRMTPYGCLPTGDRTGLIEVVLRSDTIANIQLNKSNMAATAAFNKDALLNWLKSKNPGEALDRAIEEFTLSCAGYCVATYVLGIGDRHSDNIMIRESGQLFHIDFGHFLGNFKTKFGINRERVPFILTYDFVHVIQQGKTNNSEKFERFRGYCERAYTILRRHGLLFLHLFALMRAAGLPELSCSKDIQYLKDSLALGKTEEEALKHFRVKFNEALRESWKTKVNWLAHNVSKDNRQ
T1 sequence (P27986 whole entry partner): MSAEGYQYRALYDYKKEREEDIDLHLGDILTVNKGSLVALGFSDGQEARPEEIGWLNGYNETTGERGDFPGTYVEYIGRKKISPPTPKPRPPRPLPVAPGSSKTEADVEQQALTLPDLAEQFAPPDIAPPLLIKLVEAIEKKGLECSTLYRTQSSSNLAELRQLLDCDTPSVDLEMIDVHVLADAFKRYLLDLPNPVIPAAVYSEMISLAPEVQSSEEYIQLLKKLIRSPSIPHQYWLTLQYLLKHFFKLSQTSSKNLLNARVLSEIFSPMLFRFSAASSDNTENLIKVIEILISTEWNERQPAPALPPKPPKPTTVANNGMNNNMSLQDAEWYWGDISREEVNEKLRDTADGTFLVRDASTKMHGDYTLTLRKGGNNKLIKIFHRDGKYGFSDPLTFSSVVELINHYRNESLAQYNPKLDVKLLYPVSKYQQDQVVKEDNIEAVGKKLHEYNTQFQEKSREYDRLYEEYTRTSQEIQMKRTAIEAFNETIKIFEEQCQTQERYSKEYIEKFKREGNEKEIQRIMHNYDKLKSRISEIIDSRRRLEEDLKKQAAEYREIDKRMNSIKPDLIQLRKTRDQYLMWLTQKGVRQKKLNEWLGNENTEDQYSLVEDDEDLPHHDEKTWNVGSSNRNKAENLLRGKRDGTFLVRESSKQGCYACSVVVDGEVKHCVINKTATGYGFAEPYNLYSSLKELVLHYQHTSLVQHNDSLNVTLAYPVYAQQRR

DNA-PK (h) = biological target: T2, DNA-PK (h) (Homo sapiens, UniProt P78527); assay: DNA-PK kinase inhibitory activity (HTRF, Eurofins); format: biochemical; conditions: ATP: 10 μM
T2 construct: Eurofins Pharma Discovery Service (contract assay)
Description: (§1) This experiment was tested at Eurofins Pharma Discovery Service, Reaction Biology Corp. (RBC)
(§2) […] DNA-PK: Mg/ATP; GST-cMyc-p53; EDTA; Ser15 antibody; ATP: 10 μM; biotinylated phosphatidylinositol-3,4,5-triphosphate; GST label GRP1 PH domain; streptavidin and phycocyanin; europium-labelled monoclonal antibody against GST.
DNA-PK (h) was incubated in a determination buffer containing 50 nM GST-cMyc-p53 and Mg/ATP (density as required). The reaction was initiated by adding a mixture of Mg/ATP. After incubating at room temperature for 30 min, a termination solution containing EDTA was added to terminate the reaction. Finally, a detection buffer (containing labeled anti-GST monoclonal antibody and europium-labeled anti-phosphate Ser15 antibody against phosphorylated p53) was added. Then, the board was read in time-resolved fluorescence mode, and a Homogeneous Time Resolved Fluorescence (HTRF) signal was measured according to the formula HTRF=10000×(Em665 nm/Em620 nm).

[2] = tested on: human small cell lung cancer NCI-H69 cell subcutaneous xenograft tumor; assay: NCI-H69 subcutaneous xenograft, combination with etoposide, 22-day experiment (Table 7); format: in vivo, BALB/c nude mice
Description: Experiment example 3: in vivo pharmacodynamics of human small cell lung cancer NCI-H69 cell subcutaneous xenograft tumor BALB/c nude mouse model:
Experimental animals: Female BALB/c nude mice, 6-8 weeks old, weighing 15-22 grams; supplier: Shanghai Linchang Biotechnology Co., LTD. (Linchang, Shanghai)
Human small cell lung cancer NCI-H69 cells (ATCC, item number: HTB-119 and ECACC-95111733) were cultured in vitro in a culture condition of RPMI-1640 medium with 10% fetal bovine serum, 100 U/mL penicillin and 100 μg/mL streptomycin, incubated at 37° C. and 5% CO2. Conventional passage was carried out twice a week. When cell saturation was 80%-90% and the number reaches the requirement, cells were collected, counted and inoculated.
0.2 mL (10×10^6) NCI-H69 cells (with matrix glue, and volume ratio of 1:1) were subcutaneously inoculated into a right back of each mouse, and group administration was initiated when the average tumor volume reaches about 110-120 mm^3.
The tested compound was prepared as a 5 mg/mL clarified solution with 10% DMSO+50% polyethylene glycol 400+40% water as the solvent.
The experimental indicators refers to study whether tumor growth was inhibited, delayed, or cured. Tumor diameter was measured twice a week with a vernier caliper. The calculation formula of the tumor volume was V=0.5a×b^2, and a and b represent the long diameter and short diameter of the tumor, respectively.
The antitumor efficacy of the compound was evaluated by TGI (%) or relative tumor proliferation rate T/C (%). TGI (%) reflects the tumor growth inhibition rate. The calculation of TGI (%): TGI (%)=[1−(average tumor volume at the end of administration of a certain treatment group−average tumor volume at the beginning of administration of the treatment group)/(average tumor volume at the end of treatment in solvent control group−average tumor volume at the beginning of treatment in solvent control group)]×control group.
Relative tumor proliferation rate T/C (%): the calculation formula was as follows: T/C %=[…] TRTV/CRTV group (TRTV: treatment group RTV; CRTV: negative control group RTV). According to results of tumor measurement, Relative Tumor Volume (RTV) was calculated by the formula RTV=Vt/V0, where V0 was the average tumor volume measured in group administration (i.e., d0), and Vt was the average tumor volume measured in a certain single measurement. TRTV and CRTV collect data on the same day.
Statistic analysis includes an average value and a standard error (SEM) of tumor volume at each time point for each group. […] If there was no significant difference in F value, Dunnet (2-sided) method was applied to analysis. All data were analyzed using SPSS 17.0. P<0.05 was considered as having a significant difference.

PI3K (p110α/p85α) = biological target: T3, PI3K (p110α/p85α) (Homo sapiens, UniProt P42336); assay: PI3K (p110α/p85α) kinase inhibitory activity (HTRF); format: biochemical
T3 construct: Eurofins Pharma Discovery Service (contract assay)
T3 sequence (P42336 whole entry, species assumed): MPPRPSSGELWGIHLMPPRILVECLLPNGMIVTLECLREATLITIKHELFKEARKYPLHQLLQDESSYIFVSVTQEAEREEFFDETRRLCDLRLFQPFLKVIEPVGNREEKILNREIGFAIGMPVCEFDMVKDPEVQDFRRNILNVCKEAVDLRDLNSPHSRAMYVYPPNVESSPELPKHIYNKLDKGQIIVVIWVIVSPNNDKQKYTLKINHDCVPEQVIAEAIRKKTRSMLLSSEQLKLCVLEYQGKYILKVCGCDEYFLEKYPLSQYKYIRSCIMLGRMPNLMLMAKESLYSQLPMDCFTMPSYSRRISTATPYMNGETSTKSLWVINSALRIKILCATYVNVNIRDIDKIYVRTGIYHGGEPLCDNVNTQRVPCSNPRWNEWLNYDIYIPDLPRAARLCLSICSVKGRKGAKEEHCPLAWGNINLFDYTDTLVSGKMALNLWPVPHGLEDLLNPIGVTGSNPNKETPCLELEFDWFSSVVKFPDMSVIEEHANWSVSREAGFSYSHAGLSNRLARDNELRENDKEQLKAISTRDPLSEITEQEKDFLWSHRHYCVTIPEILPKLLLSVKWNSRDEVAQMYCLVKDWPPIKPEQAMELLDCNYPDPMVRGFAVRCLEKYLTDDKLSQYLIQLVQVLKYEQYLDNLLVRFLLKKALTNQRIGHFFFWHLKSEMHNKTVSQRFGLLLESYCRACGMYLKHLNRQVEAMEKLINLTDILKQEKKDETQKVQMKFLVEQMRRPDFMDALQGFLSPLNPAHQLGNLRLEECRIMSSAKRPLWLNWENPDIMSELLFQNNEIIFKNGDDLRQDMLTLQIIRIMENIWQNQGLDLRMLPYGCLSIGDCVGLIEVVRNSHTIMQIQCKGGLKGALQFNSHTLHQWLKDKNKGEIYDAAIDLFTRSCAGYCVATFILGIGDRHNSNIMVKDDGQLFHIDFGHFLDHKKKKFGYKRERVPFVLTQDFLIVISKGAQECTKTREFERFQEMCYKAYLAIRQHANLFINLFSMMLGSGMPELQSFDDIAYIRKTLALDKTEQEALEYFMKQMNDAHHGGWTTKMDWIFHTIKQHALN
T3 sequence (P27986 whole entry partner, species assumed): as the sequence (P27986 whole entry partner) above
Description: as §1, §2
PI3K (p110α/p85α) was incubated in a determination buffer containing phosphatidylinositol 4,5-diphosphate and Mg/ATP (density as required). The reaction was initiated by adding an ATP solution. After incubating at room temperature for 30 min, a termination solution containing EDTA and biotinylated phosphatidylinositol-3,4,5-triphosphate was added to terminate the reaction. Finally, a detection buffer (containing labeled anti-GST monoclonal antibody, PH domain of GRP1 with GST label and streptavidin and phycyanin and […]) was added. Then, the board was read in time-resolved fluorescence mode, and an HTRF signal was measured according to the formula HTRF=10000×(Em665 nm/Em620 nm).

[3] = 40 mg/kg, PO, QD + etoposide 10 mg/kg, IP, 3-day administration, 4-day withdrawal, 22nd day
[4] = 40 mg/kg, PO, QD + etoposide 10 mg/kg, IP, 3-day administration, 4-day withdrawal, average ± SEM

- AUC0-last ([1]; IV(2 mg/kg), mouse plasma): 3.354 µM·h
- C0 ([1]; IV(2 mg/kg), mouse plasma): 1810 nM
- Cl ([1]; IV(2 mg/kg), mouse plasma): 20.3 mL/min/kg
- T1/2 ([1]; IV(2 mg/kg), mouse plasma): 1.33 h
- Tlast ([1]; IV(2 mg/kg), mouse plasma): 8.00 h
- Vdss ([1]; IV(2 mg/kg), mouse plasma): 2.25 L/kg
- Bioavailability (%) ([1]; PO(10 mg/kg), mouse): 60.8%
- AUC0-last ([1]; PO(10 mg/kg), mouse plasma): 9.073 µM·h
- Cmax ([1]; PO(10 mg/kg), mouse plasma): 2520 nM
- T1/2 ([1]; PO(10 mg/kg), mouse plasma): 2.47 h
- Tlast ([1]; PO(10 mg/kg), mouse plasma): 8.00 h
- Tmax ([1]; PO(10 mg/kg), mouse plasma): 1.00 h
- IC50 (PI3K (p110σ/p85α)): 13 nM
- IC50 (DNA-PK (h)): 0.5 nM
- Weight changes ([2]; 40 mg/kg group (+ etoposide 10 mg/kg, IP)): −16.66%
- IC50 (PI3K (p110α/p85α)): 39 nM
Compound: COc1ccc(C(O)c2cc(-c3ccnc4cc(N5CCOCC5)ccc34)c(F)cc2Cl)nn1 (single isomer, unassigned) [Embodiment 2]
- RTV (22th day) ([2]; 40 mg/kg, PO, QD + etoposide 10 mg/kg, IP, 3-day administration, 4-day withdrawal): 1.84
- T/C (%) [2, 3]: 21.37%
- TGI (%) [2, 3]: 89% and 88.96%
- Tumor volume (mm^3) (0th day) [2, 4]: 119 ± 13 mm^3
- Tumor volume (mm^3) (22th day) [2, 4]: 219 ± 44 mm^3
